In patent publication US20130122541A1, “MICROORGANISM PRODUCTION OF HIGH-VALUE CHEMICAL PRODUCTS, AND RELATED COMPOSITIONS, METHODS AND SYSTEMS” (The Regents of the University of Colorado, priority 2010, published 2013):
In brackets after ≈: the same amount, converted by molar mass. Read-outs that look alike come from different tables or passages of the source.

Key:
E. coli Mach1-T1R = assay: MIC of 3-HP, microaerobic 96 well-plate, MOPS minimal media with supplements (Example 36); format: cell-based, Escherichia coli; conditions: increase of the 3-HP MIC, 24 h
Method: 3-HP was obtained from TCI America (Portland, Oreg.). Significant acrylic acid and 2-oxydipropionic contamination was observed via HPLC analysis. Samples were subsequently treated by diethyl ether extraction to remove acrylic acid and a portion of the 2-oxydipropionic contaminants. Samples were then neutralized with 10 M NaOH to a final pH of 7.0. […] The working stock solution was used for the selection, growth rates and MIC evaluations in this example.
Overnight cultures of strains were grown in 5 ml LB (with antibiotic where appropriate). A 1 v/v % was used to inoculate a 15 ml conical tube filled to the top with MOPS minimal media and capped. After the cells reached mid exponential phase, the culture was diluted to an OD600 of 0.200. The cells were further diluted 1:20 and a 10 ul aliquot was used to inoculate each well (˜10^4 cells per well).

B. subtilis = assay: MIC evaluation of 3-HP, B. subtilis aerobic, M9 media + glutamate, 96 well-plate, 24 h (Common Methods); format: cell-based; conditions: for Avg 24 hr ΔOD600: 3HP tolerance, B. subtilis 168, M9 + glu + trp plus the named supplement(s); for % Increase Over Control: ΔOD600 with named supplement(s) vs B. subtilis 168 without supplement
Method: (§1) For MIC evaluations, the final results are expressed in chemical agent concentrations determined by analysis of the stock solution by HPLC (i.e., see Subsection IIIb).
(§2) The minimum inhibitory concentration (MIC) was determined aerobically in a 96 well-plate format. […] Media supplements were added according to levels reported in the Supplements Table where specified. Overnight cultures of strains were grown in triplicate in 5 mL LB (with antibiotic where appropriate). A 1% (v/v) inoculum was introduced into a 5 ml culture of M9 minimal media+glutamate.

[1] = tested on: Yeast strains (S288C background); assay: microbe, parasite or virus in culture; format: cell-based, Saccharomyces cerevisiae
Method: The minimum inhibitory concentration (MIC) was determined aerobically in a 96 well-plate format. […] Media supplements were added according to levels reported in the Supplements Table, where specified. Overnight cultures of strains were grown in triplicate in 5 mL SD media with vitamins (Methods in Enzymology vol. 350, page 17 (2002)). A 1% (v/v) inoculum was introduced into a 5 ml culture of SD minimal media without vitamins. After the cells reached mid-exponential phase, the culture was diluted to an OD600 of 0.200. The cells were further diluted 1:5 and a 10 μL aliquot was used to inoculate each well of a 96 well plate (˜10^4 cells per well) to total volume of 100 uL. […] Plates were incubated for 72 hours at 30 C.

[2] = tested on: Yeast strains (S288C background); assay: microbe, parasite or virus in culture; format: cell-based, Saccharomyces cerevisiae; remark: listed apart in the source
Method: The minimum inhibitory concentration (MIC) was determined anaerobically in a 96 well-plate format. […] A 1% (v/v) inoculum was introduced into a 5 ml culture of SD minimal media without vitamins. After the cells reached mid-exponential phase, the culture was diluted to an OD600 of 0.200. The cells were further diluted 1:5 and a 10 μL aliquot was used to inoculate each well of a 96 well plate (˜10^4 cells per well) to total volume of 100 uL. […] Plates were incubated for 72 hours at 30 C. […] Plates were sealed in biobag anaerobic chambers that contained gas generators for anaerobic conditions and incubated for 72 hours at 30 C.

E. coli = assay: microbe, parasite or virus in culture; format: cell-based
Method: as §1
as §2, with “Table,” for “Table”, “media.” for “media+glutamate.”

MACH1-T1R = assay: MIC, microaerobic 96 well-plate, MOPS minimal media, IroK expression studies (Example 45); format: cell-based, E. coli; conditions: for MIC of other organic acids of similar molecular makeup on IroK expression: IroK expressed from pKK223-3
Method: The two oligonucleotides were added in a 1:1 ratio and annealed according to standard methodology in a thermal cycler. Ligation of the annealed primer product with the pKK223-3 expression vector (SEQ ID NO:008, Pharmacia, Piscataway, N.J.) was performed with T4 Ligase (Invitrogen, Carlsbad, Calif.) and incubated at 25° C. overnight. The ligation product was then electroporated into competent MACH1™-T1^R, plated on LB+ampicillan, and incubated at 37° C. for 24 hours. Plasmids were isolated and confirmed by purification and subsequent restriction digest and sequencing (Macrogen, Rockville, Md.). MICs were then determined corresponding to 1 mM IPTG induction.
The minimum inhibitory concentration (MIC) was determined microaerobically in a 96 well-plate format. Overnight cultures of strains were grown in 5 mL LB (with antibiotic where appropriate). A 1% (v/v) inoculum was introduced into a 15 ml culture of MOPS minimal media. After the cells reached mid-exponential phase, the culture was diluted to an OD600 of 0.200. The cells were further diluted 1:20 and a […] aliquot was used to inoculate each well of a 96 well plate (˜10^4 cells per well).

E. coli K12 [3] = assay: microbe, parasite or virus in culture; conditions: Escherichia coli, K12, 24 h, read-out: Minimum inhibitory concentration (MIC) of 3-HP for E. coli K12 in M9 minimal media supplemented with the substance
BX3_0206 = assay: 3-HP production by BX3_0206 in SM3 medium without and with 10 μg/ml cerulenin; format: cell-based, E. coli
Method: All data are the average of triplicate cultures. […] Under these conditions, the specific productivity after 24 hours is […] 3HP per gDCW.

BX3_0194 = assay: 3-HP production by BX3_0194 in SM3 medium without and with 10 μg/ml cerulenin; format: cell-based, E. coli
Method: All data are the average of triplicate cultures.
Under these conditions, the specific productivity after 24 hours is 1.3 g 3HP per gDCW.

BX3_0195 = assay: 3-HP production by BX3_0195 in SM3 medium without and with 10 μg/ml cerulenin; format: cell-based, E. coli
Method: Cultures were started from freezer stocks by standard practice (Sambrook and Russell, 2001) into 50 mL of LB media plus 100 μg/mL ampicillin and grown to stationary phase overnight at 37° C. with rotation at 225 rpm. Five ml of this culture were transferred to 100 ml of SM3 media plus 40 g/L glucose, 100 μg/ml ampicillin, and 1 mM IPTG in triplicate 250-ml baffled flasks and incubated at 37° C., 225 rpm. […] Dry cell weight (DCW) is calculated as 0.33 times the measured OD600 value, based on baseline DCW to OD600 determinations. All data are the average of triplicate cultures.

E. coli K12 [4] = conditions: aerobic, 24 h; putrescine, cadaverine, spermidine 0.1 g/L, sodium bicarbonate 20 mM; value is the 3-HP concentration
[5] = 24 hr, SM3 medium, presence of 10 μg/ml cerulenin

Molecule: O=C(O)c1cccc(O)c1O [2,3-didyroxybenzoic acid, 2,3-dihydroxybenzoic acid]
- MIC increase resulting from supplementation (E. coli Mach1-T1R): 33%

Molecule: O=C(O)O [Bicarbonate]
- Avg 24 hr ΔOD600 (B. subtilis): 0.06
- % Increase Over Control (B. subtilis): 56%

Molecule: O=C(O)CC(O)(CC(=O)O)C(=O)O [Citrate]
- Avg 24 hr ΔOD600 (B. subtilis): 0.30
- % Increase Over Control (B. subtilis): 674%

Molecule: CSCC[C@H](N)C(=O)O [Methionine (B)]
- % Increase Over Control [1]: 59%
- % Increase Over Control [2]: 167%
- % Increase Over Control (E. coli): 36%
- average MIC Assay Result (g/L 3-HP) (E. coli): 38 g/L 3-HP

Molecule: CSCC[C@H](N)C(=O)O [Methionine]
- Avg 24 hr ΔOD600 (B. subtilis): 0.15
- % Increase Over Control (B. subtilis): 282%

Molecule: O=C(O)C1=C[C@@H](O)[C@@H](O)[C@H](O)C1 [Shikimate (A)]
- % Increase Over Control ([1]; 3-HP MIC with named supplement(s) vs S288C in SD without supplement, aerobic): 78%
- average MIC Assay Result (g/L 3-HP) ([1]; MIC of 3-HP, S288C, SD media plus the named supplement(s), aerobic): 80 g/L
- % Increase Over Control ([2]; 3-HP MIC with named supplement(s) vs S288C in SD without supplement, anaerobic): 60%
- average MIC Assay Result (g/L 3-HP) ([2]; MIC of 3-HP, S288C, SD media plus the named supplement(s), anaerobic): 60 g/L
- average MIC Assay Result (g/L 3-HP) (E. coli; MIC of 3-HP for strain BW25113, M9 media with the named supplement(s), aerobic, 24-hour MIC evaluation): 28 g/L 3-HP
- % Increase Over Control (E. coli; increase of 3-HP MIC over BW25113 in M9 without supplements, M9 media with the named supplement(s), aerobic): 3%

Molecule: CC(=O)O [acetic, acetic acid]
- MIC of other organic acids of similar molecular makeup on IroK expression (MACH1-T1R): unchanged

Molecule: C=CC(=O)O [acrylic, acrylic acid]
- MIC of other organic acids of similar molecular makeup on IroK expression (MACH1-T1R): unchanged

Molecule: NCCCCCN [cadaverine]
- MIC (E. coli K12 [3]): 30 mg/mL (≈ 294 mM)

Molecule: C/C=C/C/C=C/CCC(=O)[C@H]1O[C@H]1C(N)=O [cerulenin]
- 3HP (BX3_0206; [5]): 0.43 g/L
- OD600 (BX3_0206; [5]): 6.4
- specific productivity after 24 hours (BX3_0206; BX3_0206, SM3 medium, 10 μg/ml cerulenin): 0.20 g 3HP per gDCW
- specific productivity after 24 hours (BX3_0194): 1.3 g 3HP per gDCW
- 3HP (BX3_0194; 4 hr): 0.003 g/L
- OD600 (BX3_0194; 4 hr): 1.3
- 3HP (BX3_0194; 6 hr): 0.14 g/L
- OD600 (BX3_0194; 6 hr): 2.6
- 3HP (BX3_0194; 8 hr): 0.43 g/L
- OD600 (BX3_0194; 8 hr): 3.1
- 3HP (BX3_0194; 24 hr): 1.43 g/L
- OD600 (BX3_0194; 24 hr): 3.3
- specific productivity after 24 hours (BX3_0195): 0.54 g 3HP per gDCW
- 3HP (BX3_0195; 4 hr): 0.003 g/L
- OD600 (BX3_0195; 4 hr): 0.97
- 3HP (BX3_0195; 6 hr): 0.07 g/L
- OD600 (BX3_0195; 6 hr): 1.57
- 3HP (BX3_0195; 8 hr): 0.31 g/L
- OD600 (BX3_0195; 8 hr): 2.36
- 3HP (BX3_0195; 24 hr): 1.17 g/L
- OD600 (BX3_0195; 24 hr): 6.59

Molecule: Cl.NC1CCSC1=O (stereo not drawn) [homocysteine thiolactone hydrochloride]
- MIC increase resulting from supplementation (E. coli Mach1-T1R): 60%

Molecule: N[C@@H](CCO)C(=O)O [homoserine]
- MIC increase resulting from supplementation (E. coli Mach1-T1R): 33%

Molecule: CC(O)C(=O)O (stereo not drawn) [lactic, lactic acid]
- MIC of other organic acids of similar molecular makeup on IroK expression (MACH1-T1R): unchanged

Molecule: CCC(=O)C(=O)O [oxobutanoate]
- MIC increase resulting from supplementation (E. coli Mach1-T1R): 7%

Molecule: Nc1ccc(C(=O)O)cc1 [p-aminobenzoate]
- Avg 24 hr ΔOD600 (B. subtilis): 0.07
- % Increase Over Control (B. subtilis): 89%

Molecule: Nc1ccc(C(=O)O)cc1 [p-aminobenzoic acid]
- MIC increase resulting from supplementation (E. coli Mach1-T1R): 7%

Molecule: NNC(=O)c1ccc(O)cc1 [p-hydroxybenzoic acid hydrazide]
- MIC increase resulting from supplementation (E. coli Mach1-T1R): 33%

Molecule: N[C@@H](Cc1ccccc1)C(=O)O [phenylalanine]
- MIC increase resulting from supplementation (E. coli Mach1-T1R): 33%

Molecule: NCCCCN [putrescine]
- MIC (E. coli K12 [3]): 40 mg/mL (≈ 454 mM)

Molecule: Cc1ncc(CO)c(CO)c1O.Cl [pyridoxine hydrochloride]
- MIC increase resulting from supplementation (E. coli Mach1-T1R): 0%

Molecule: O=C([O-])O.[Na+] [sodium bicarbonate]
- Minimum inhibitory concentration (MIC) of 3-HP for E. coli K12 in M9 minimal media supplemented with the substance (E. coli K12 [4]): 30 mg/mL

Molecule: NCCCCNCCCN [spermidine]
- Avg 24 hr ΔOD600 (B. subtilis): 0.09
- % Increase Over Control (B. subtilis): 140%
- MIC (E. coli K12 [3]): 40 mg/mL (≈ 275 mM)

Molecule: C[C@@H](O)[C@H](N)C(=O)O [threonine]
- MIC increase resulting from supplementation (E. coli Mach1-T1R): 3%

Molecule: N[C@@H](Cc1c[nH]c2ccccc12)C(=O)O [tryptophan]
- MIC increase resulting from supplementation (E. coli Mach1-T1R): 33%

Molecule: N[C@@H](Cc1ccc(O)cc1)C(=O)O [tyrosine]
- MIC increase resulting from supplementation (E. coli Mach1-T1R): 40%

Molecule: MKPALRDFIAIVQERLASVTA [IroK]
- fold increase in MIC of 3-HP on increased expression of IroK (MACH1-T1R; expressed from pKK223-3, 1 mM IPTG, microaerobic, MOPS minimal media, 24 h): > 2 fold
